Results from ChEMBL document CHEMBL1201862, “PubChem BioAssay data set” (2004).
Activity calls are given as the source filed them.

Experiments:
cells = assay type: functional
[1] = THP-1 cell cytotoxicity, dose response, cytotoxicity control for non-replicating M. tuberculosis project (AID 489025); assay type: functional
Vero [2] = test: cells; assay type: functional; conditions: Chlorocebus sabaeus
[3] = molecular target: T1, Short transient receptor potential channel 4 (Mus musculus, UniProt Q9QUQ5); test: calcium entry via TRPC4 opening agents – cell-based, HEK293 TRPC4/mu-opioid, Fluo-4 calcium, dose response (AID 434937); assay type: functional
T1 sequence (Q9QUQ5 whole entry): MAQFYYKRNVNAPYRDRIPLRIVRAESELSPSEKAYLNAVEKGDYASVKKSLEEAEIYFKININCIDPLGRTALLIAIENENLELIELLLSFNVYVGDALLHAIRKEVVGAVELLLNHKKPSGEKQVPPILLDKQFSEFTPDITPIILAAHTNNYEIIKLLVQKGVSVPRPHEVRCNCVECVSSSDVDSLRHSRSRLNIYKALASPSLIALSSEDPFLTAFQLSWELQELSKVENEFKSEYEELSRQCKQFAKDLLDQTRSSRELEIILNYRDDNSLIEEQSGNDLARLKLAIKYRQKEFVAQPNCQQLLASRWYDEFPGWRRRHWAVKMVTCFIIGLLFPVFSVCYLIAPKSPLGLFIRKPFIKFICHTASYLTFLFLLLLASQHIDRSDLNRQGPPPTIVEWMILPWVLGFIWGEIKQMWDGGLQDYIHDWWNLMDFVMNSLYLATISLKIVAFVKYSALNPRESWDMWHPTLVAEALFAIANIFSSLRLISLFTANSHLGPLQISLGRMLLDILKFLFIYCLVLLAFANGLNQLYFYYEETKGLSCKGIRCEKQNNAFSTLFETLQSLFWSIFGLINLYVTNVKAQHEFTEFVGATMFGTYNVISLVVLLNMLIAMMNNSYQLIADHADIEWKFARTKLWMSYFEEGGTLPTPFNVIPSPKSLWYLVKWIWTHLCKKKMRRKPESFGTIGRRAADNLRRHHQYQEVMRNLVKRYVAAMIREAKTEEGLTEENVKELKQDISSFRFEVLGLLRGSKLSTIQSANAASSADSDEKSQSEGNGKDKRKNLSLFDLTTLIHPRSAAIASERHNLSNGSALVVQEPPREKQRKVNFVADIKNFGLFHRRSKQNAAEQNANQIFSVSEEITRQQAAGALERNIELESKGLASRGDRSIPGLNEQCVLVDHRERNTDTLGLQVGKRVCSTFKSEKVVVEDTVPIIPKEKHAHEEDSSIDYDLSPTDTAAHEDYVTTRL

[4] = Vero E6 cell cytotoxicity, dose response, cytotoxicity control for non-replicating M. tuberculosis project, secondary assay (AID 492998); assay type: functional, VeroE6; conditions: Vero C1008
Vero [5] = test: cells; assay type: functional, cell-based; conditions: Chlorocebus sabaeus
Troponin, cardiac muscle = Troponin, cardiac muscle (Homo sapiens, UniProt P19429+P45379+P63316); test: Fluorescence-based biochemical high throughput dose response assay for activators of the calcium sensitivity of cardiac Regulated Thin Filaments (RTF). [Related pubchem assays (depositor defined):AID493008, AID493018, AID504382, AID504383]; assay type: protein-complex assay
H4 = test: Luminescence Cell-Based Dose Response HTS to Identify Activators of 5'UTR Stem-Loop Driven Prion Protein mRNA Translation in H4 Neuroglioblastoma Cells. [Related pubchem assays: 1829 (Project Summary), 1814 (Primary HTS)]; assay type: functional; conditions: Homo sapiens
HEK293 [6] = test: inhibition of NOD1-driven NF-kB reporter – cell-based, luminescence, uHTS, primary screen (AID 1578); assay type: functional; conditions: Homo sapiens
HEK293 [7] = test: cells; assay type: functional, cell-based; conditions: Homo sapiens
[8] = test system: Streptococcus sp. 'group A'; test: Streptococcus pyogenes SK(-)GAS viability under kanamycin – luminescence, BacTiterGlo, confirmation, counter-screen for streptokinase expression inhibitor project, dose response (AID 1900); assay type: functional, organism-based
Streptococcus = test: GAS UMAA2166 growth inhibition – luminescence, BacTiterGlo, counter-screen for streptokinase expression inhibitor project, dose response (AID 1915); assay type: functional, organism-based;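 further: potency for reduction of bacterial viability or growth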
HEK293 [9] = test: cells; assay type: functional, cell-based; conditions: Homo sapiens; remark: listed apart in the source
HEK293 [10] = test: NOD2 signaling inhibitors in MDP-stimulated cells, cell-based, uHTS, luminescence (AID 2001); assay type: functional; conditions: Homo sapiens
HEK293 [11] = test: cells; assay type: functional, cell-based; conditions: Homo sapiens; remark: listed apart in the source
[12] = molecular target: Nucleotide-binding oligomerization domain-containing protein 2 (Homo sapiens, UniProt Q9HC29); test: inhibition of NOD2-driven NF-kB reporter – cell-based, luminescence, uHTS, HEK293 (AID 1566); assay type: functional
[13] = molecular target: T2, Heat shock factor protein 1 (Mus musculus, UniProt P38532); test: decrease of HSF1-responsive luciferase luminescence – cell-based, NIH3T3, dose retest, confirmation (AID 2382); assay type: functional;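 further: NIH3T3 fibroblasts with HSF1-driven luciferase reporter stressed by proteasome inhibitor MG132; luminescence from HSF1-driven luciferase expression after 8 hours of MG132 stress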
T2 sequence (P38532 whole entry): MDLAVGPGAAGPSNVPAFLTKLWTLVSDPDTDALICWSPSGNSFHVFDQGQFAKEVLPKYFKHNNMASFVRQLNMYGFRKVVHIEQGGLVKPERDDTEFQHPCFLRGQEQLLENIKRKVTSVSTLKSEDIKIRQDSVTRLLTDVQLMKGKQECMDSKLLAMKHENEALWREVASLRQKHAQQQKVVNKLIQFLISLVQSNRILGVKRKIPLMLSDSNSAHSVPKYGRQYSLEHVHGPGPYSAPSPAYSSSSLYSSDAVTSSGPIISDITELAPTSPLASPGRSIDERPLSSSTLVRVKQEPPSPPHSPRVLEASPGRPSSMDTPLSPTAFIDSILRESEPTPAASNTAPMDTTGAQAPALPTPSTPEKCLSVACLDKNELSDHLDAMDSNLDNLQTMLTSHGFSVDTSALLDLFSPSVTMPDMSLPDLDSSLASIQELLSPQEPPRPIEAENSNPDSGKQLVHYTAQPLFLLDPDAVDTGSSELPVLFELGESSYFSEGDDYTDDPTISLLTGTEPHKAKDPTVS

[14] = molecular target: DNA dC->dU-editing enzyme APOBEC-3A (Homo sapiens, UniProt P31941); test: Dose Response confirmation of small molecule APOBEC3A DNA Deaminase Inhibitors via a fluorescence-based single-stranded DNA deaminase assay. [Related pubchem assays (depositor defined):AID493011, AID493024]; assay type: functional
[15] = molecular target: DNA dC->dU-editing enzyme APOBEC-3G (Homo sapiens, UniProt Q9HC16); assay type: functional;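 further: Dose-response counterscreen measuring inhibition of APOBEC3G DNA deaminase activity, run while confirming APOBEC3A inhibitors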
Caspase-6 = molecular target: T3, Caspase-6 (Homo sapiens, UniProt P55212); test: inhibition of CASP6 peptide cleavage – biochemical, VEID-R110 fluorescence, cherry-pick, dose response (AID 720632)
T3 sequence (P55212 whole entry): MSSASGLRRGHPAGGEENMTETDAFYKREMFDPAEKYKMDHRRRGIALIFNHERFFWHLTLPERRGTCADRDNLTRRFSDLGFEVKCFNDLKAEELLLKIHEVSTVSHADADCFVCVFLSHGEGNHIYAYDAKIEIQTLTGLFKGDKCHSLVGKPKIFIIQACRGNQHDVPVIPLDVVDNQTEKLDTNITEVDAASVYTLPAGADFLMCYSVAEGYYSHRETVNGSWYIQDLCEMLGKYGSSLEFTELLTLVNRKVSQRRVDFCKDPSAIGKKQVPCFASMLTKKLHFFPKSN

[16] = molecular target: T4, Long-chain-fatty-acid--AMP ligase FadD28 (Mycobacterium tuberculosis, UniProt P9WQ59); test: Fluorescence polarization aasay to screen for inhibitors that compete for the binding of FadD28 to a bisubstrate Measured in Biochemical System Using Plate Reader - 2147-01_Inhibitor_Dose_CherryPick_Activity.; assay type: functional, Mycobacterium tuberculosis H37Rv
T4 sequence (P9WQ59 whole entry): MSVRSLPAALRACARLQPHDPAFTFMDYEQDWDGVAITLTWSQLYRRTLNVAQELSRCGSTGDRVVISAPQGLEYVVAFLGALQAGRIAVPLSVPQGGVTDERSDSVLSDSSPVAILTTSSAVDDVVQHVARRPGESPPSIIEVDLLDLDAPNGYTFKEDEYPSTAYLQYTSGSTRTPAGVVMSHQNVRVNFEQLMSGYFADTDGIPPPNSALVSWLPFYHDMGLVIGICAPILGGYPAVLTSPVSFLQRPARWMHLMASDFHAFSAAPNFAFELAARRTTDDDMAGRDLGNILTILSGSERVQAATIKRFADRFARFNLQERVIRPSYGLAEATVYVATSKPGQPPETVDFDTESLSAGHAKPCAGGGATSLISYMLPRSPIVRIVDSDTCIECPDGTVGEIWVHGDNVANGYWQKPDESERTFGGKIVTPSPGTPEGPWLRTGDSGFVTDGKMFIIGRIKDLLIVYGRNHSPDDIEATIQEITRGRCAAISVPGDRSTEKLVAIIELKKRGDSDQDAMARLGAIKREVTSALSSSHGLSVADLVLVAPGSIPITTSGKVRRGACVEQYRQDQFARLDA

Genome polyprotein = Genome polyprotein (dengue virus type 2, UniProt P29990); test: flavivirus cap methylation enzyme inhibition – biochemical, confirmation dose response, primary screen (AID 588689); assay type: functional

c1ccc(Nc2nc(Nc3ccccc3)nc(N3CCNCC3)n2)cc1
IC50 (cells): 26.5 µM (active)
CC50 [1]: 23 µM (active)
CC50 (Vero [2]): 22.6 µM (active)
EC50 [3]: 3.35 µM (active)
CC50 [4]: > 20 µM (active)
IC50 (Vero [5]): > 25 µM (active)

O=C(CCSc1ccccc1)N1CCN(C(=O)c2ccco2)CC1
EC50 (Troponin, cardiac muscle): > 71.5 µM (inactive)

CC(COC(=O)c1ccccc1)(COC(=O)c1ccccc1)/[N+]([O-])=C/c1ccccc1
EC50 (Troponin, cardiac muscle): > 71.5 µM (inactive)

CCN1C(=O)/C(=C/N2CCc3ccccc32)SC1=S
EC50 (Troponin, cardiac muscle): 5.4 µM (active)
EC50 (H4): 4.21 µM (active)

COc1ccc(-c2cc(C(=O)NCC(c3ccccc3)N(C)C)c3ccccc3n2)cc1OC (centres undefined)
EC50 [3]: 10.6 µM (active)

COc1ccc(Cl)cc1/C=C/c1ccc2cccc(O)c2n1
EC50 (HEK293 [6]): 5.5 µM (active)
IC50 (HEK293 [7]): 14 µM (active)
EC50 [8]: 0.786 µM (active)
EC50 (Streptococcus): 3.58 µM (active)
IC50 (HEK293 [9]): > 20 µM (inactive)
IC50 (HEK293 [10]): 4.73 µM (inactive)
IC50 (HEK293 [11]): > 20 µM (inactive)
EC50 [12]: > 20 µM (inactive)

O=C(Nc1ccncc1)c1c(F)cccc1F
EC50 (HEK293 [6]): 9.17 µM (active)
EC50 [13]: 24.1 µM (active)
IC50 (HEK293 [7]): 3.91 µM (active)
IC50 (HEK293 [9]): > 20 µM (inactive)
IC50 (HEK293 [10]): 4.33 µM (active)
IC50 (HEK293 [11]): > 20 µM (inactive)
EC50 [12]: 4.55 µM (active)

Cc1ccc(CNC(=O)CCNC(=O)c2ccc([N+](=O)[O-])cc2)cc1
IC50 [14]: 6.67 µM (active)
IC50 [15]: 10.9 µM (active)

CCN1CCN(c2ccc(S(=O)(=O)N3CCCCC3)cc2NC(=O)C(C)Oc2ccc(F)cc2)CC1 (centres undefined)
EC50 [3]: 10.6 µM (active)

C=CCOc1ccc(C(c2c(C(=O)O)[nH]c3ccccc23)c2c(C(=O)O)[nH]c3ccccc23)cc1
AC50 (Caspase-6): 14.2 µM (active)
AC50 [16]: 12 µM (active)
IC50 [14]: 21.5 µM (active)
IC50 [15]: 28.8 µM (active)
IC50 (Genome polyprotein): 22 µM (active)
